Each block holds one molecule with its values, some of them ahead of it.
Columns and labels:
[1] = Solubility in solvent mixture (1:1:1 xylenes:MAK:PM acetate); format: physicochemical
Text: Compound E (the disubstituted amide) was compared against Compound B (the monosubstituted amide) for solubility in a 1:1:1 mixture of xylenes:methyl amyl ketone (MAK):propylene glycol methyl ether acetate (PM acetate), which is a typical coatings solvent mixture.

[2] = Compatibility with acrylic urethane Component I (polyol component of two-component clearcoat); format: physicochemical; conditions: for Compatibility in fully formulated coating: after addition of DESMODUR N-3390 and 17 parts solvent mixture
Text: Compound E was again compared against Compound B, this time for compatibility in the following resin formulation which is the polyol component of a typical two-component acrylic urethane clearcoat formulation:
100 parts Acrylic Resin—JONCRYL® CDX-588 (70% Solids) (S.C. Johnson & Son, Inc., Racine, Wis.
5 parts—1 part Dibutyltin Dilaurate (T-12, Air Products, Allentown, Pa.)
45 parts Solvent Mixture (1:1:1 xylenes:MAK:PM Acetate)
1 part Hindered Amine Light Stabilizer (SANDUVOR® S-3055, Clariant Corp., Charlotte, N.C.).

[3] = Bonding/migration in acrylic/melamine clearcoat on RIM substrate, microtome UV depth profile at 340 nm; conditions: 3% on total resin solids, cure 30 min at 135° C.
Protocol: Compound E was investigated to determine whether it forms a chemical bond with the acrylic/melamine resin matrix during curing. For this purpose, it was added to a clearcoat formulation and coated onto a plastic substrate, as described below. Non-bondable UV absorbers readily migrate from clearcoats into plastic substrates upon curing the coating. An absorber which bonds to the matrix should not migrate into the plastic substrate to any significant extent.
The acrylic/melamine resin formulation utilized was as follows: […]
40.6 g JONCRYL® 510 acrylic resin (S.C. Johnson, Inc. Racine, Wis.)
17.5 g CYMEL® 303 crosslinker (Cytec Industries, Inc., West Paterson, N.J.)
0.52 g CYCAT® 4040 catalyst (Cytec Industries, Inc., West Paterson, N.J.)
0.50 g DC 57 flow control agent […]
After cure, the coating and part of the substrate were microtomed into 10 μm thick slices parallel to the coating surface. […] Each microtomed slice was mounted between two microscope slides and its UV absorption spectrum measured using a Perkin-Elmer Lambda 2 spectrophotometer. The absorbance per micrometer sample thickness was determined at the prominent 340 nm absorption band intrinsic to this UVA.
The results of the UV analysis were plotted as a function of depth. […] By measuring the area under the curve, the quantity of Compound E remaining in the coatings and the fraction that migrated into the substrates were estimated. […]

[4] = QUV accelerated weathering (UVB-313 bulbs) of acrylic urethane clear coat; conditions: Example 10
Text: Compounds D and E were formulated in clear coatings which were applied to panels for accelerated weathering testing as follows. Compound D or E (1% or 2% based on total resin solids) and/or SANDUVOR® S-3055 HALS-type stabilizer (1% based on total resin solids) were predissolved in the solvent mixture (to a 5-10% solids level) and added to the clear acrylic urethane formulation given in Table 3 below. Components I and II were mixed just before use. Cold roll steel panels measuring 4″×12″ and precoated with an electro-coat primer ED505A and a white polyester acrylic melamine base-coat #542AB839, obtained from ACT Laboratories, Inc. (Hillsdale, Mich.) were coated with the clear coating formulations of Table 3. The draw-down technique, using WC-60 WireCators™ (Leneta Co., Hohokus, N.J.), was used to apply the clear coat to the pre-coated panels. The clear coats were allowed to flash for 10 min at ambient temperature and cured for 30 min at 135° C.
Accelerated weathering was carried out on the clear coating formulations using a QUV device equipped with UVB-313 fluorescent bulbs. […] Specular properties such as gloss ([…], ASTMD523) and distinctness of image (“DOI”) (Dorigon Meter D47R-6FT, Hunter Associate Laboratory) and yellowing (“Delta b”) were measured as a function of weathering time. […]

[5] = 1 wt % on total resin solids, 5° C.
[6] = 1 wt % on total resin solids, 23° C.
[7] = 1 wt % on total resin solids, 60° C.

- Solubility ([1]; 5 wt %, 5° C.): No
- Solubility ([1]; 5 wt %, 23° C.): No
- Solubility ([1]; 5 wt %, 50° C.): did not dissolve
- Solubility ([1]; 5 wt %, 50° C., listed as CEX1 (B)): No
- Compatibility [2, 5]: not compatible
- Compatibility ([2]; 1 wt % on total resin solids, 5° C., listed as CEX1 (B)): No
- Compatibility [2, 6]: not compatible
- Compatibility ([2]; 1 wt % on total resin solids, 23° C., listed as CEX1 (B)): No
- Compatibility [2, 7]: not compatible
- Compatibility ([2]; 1 wt % on total resin solids, 60° C., listed as CEX1 (B)): No
- Compatibility in fully formulated coating [2]: did not result in the dissolution
Structure (SMILES): Cc1ccc(-c2nc(-c3ccc(C)cc3C)nc(-c3ccc(OCC(=O)NCCO)cc3O)n2)c(C)c1 [Compound B, 4-[4,6-Bis(2′4′-dimethylphenyl)-1,3,5-triazin-2-yl]-3-hydroxyphenoxyacetic acid, N-(2-hydroxyethyl)amide, reference compound]

- Solubility ([1]; 5 wt %, 5° C.): Yes
- Solubility ([1]; 5 wt %, 23° C.): Yes
- Solubility ([1]; 5 wt %, 50° C.): Yes
- Solubility ([1]; 10 wt %, 5° C.): did not crystallize out of solution
- Solubility ([1]; 10 wt %, 5° C., listed as EX1 (E)): Yes
- Solubility ([1]; 10 wt %, 23° C.): Yes
- Solubility ([1]; 10 wt %, 50° C.): Yes
- Dissolution in the solvent mixture ([1]; 10 wt %, temperature not stated): fully dissolved
- Fraction of added compound remaining in the coating [3]: about 95%
- Compatibility [2, 5]: Yes
- Compatibility [2, 6]: Yes
- Compatibility [2, 7]: Yes
- Compatibility ([2]; 2 wt % on total resin solids, 5° C.): Yes
- Compatibility ([2]; 2 wt % on total resin solids, 23° C.): Yes
- Compatibility ([2]; 2 wt % on total resin solids, 60° C.): Yes
- Compatibility with the resin component ([2]; 5° C., concentration not given): compatible
- Lifetime of coating compositions (percent gloss retention, percent DOI retention, delta b) compared to the unstabilized composition [4]: extend the lifetime
Structure (SMILES): CCCCN(CCO)C(=O)COc1ccc(-c2nc(-c3ccc(C)cc3C)nc(-c3ccc(C)cc3C)n2)c(O)c1 [Compound E, 4-[4,6-Bis(2′4′-dimethylphenyl)-1,3,5-triazin-2-yl]-3-hydroxyphenoxyacetic acid, N-(n-butyl)-N-(2-hydroxyethyl)amide]
- Compatibility in fully formulated coating [2]: nor did it adversely affect the compatibility

Reference: US6365652B2, “Trisaryl-1,3,5-triazine ultraviolet light absorbers” (Ciba Specialty Chemicals Corporation, priority 1997, dated 2002)
